This series in a line: Solubility of the active substance in solvents and vehicles. It counts as physicochemical. From the text: Topically administered active substances are mainly used to treat the redness, swelling, itching and discomfort of psoriasis, atopic dermatitis and other pathologies of the skin. […] Glucocorticosteroids, steroids, calcineurin inhibitors, vitamin D analoques, retinoids, immunosuppressants, antimycotics, antiinfectives, estrogens, androgens, fumaric acid esters are typical drug classes for topical administration with such low water solubility. Other examples for such poorly soluble compounds are provided e.g. in WO 03/082827 or WO 2006/050998. One example is the non-steroidal active substance having the chemical name (R)-1,1,1-Trifluoro-4-(5-fluoro-2,3-dihydrobenzofuran-7-yl)-4-methyl-2-{[(2-methyl-5-quinolyl)amino]methyl}pentan-2-ol, the empirical formula of which is C25H26F4N2O2, having a molecular weight of 462.5. This is the compound according to example 1 of WO 2006/050998 (hereinafter Ex1/998).

In the case of `Cc1ccc2c(NC[C@](O)(CC(C)(C)c3cc(F)cc4c3OCC4)C(F)(F)F)cccc2n1` [Ex1/998, (R)-1,1,1-Trifluoro-4-(5-fluoro-2,3-dihydrobenzofuran-7-yl)-4-methyl-2-{[(2-methyl-5-quinolyl)amino]methyl}pentan-2-ol], under “ethyl alcohol”, the “solubility in ethyl alcohol” value is recorded as “moderately soluble”. Besides, the solubility in hexane entry (hexane) was “only slightly soluble”. Also, the “solubility in standard cream and ointment vehicles” value (vehicles for topical administration, such as petrolatum and mineral oils) was “very poor solubility”. Also, the solubility in water entry (water) is “insoluble”.

The record behind these values is patent publication US8282909B2, “Pharmaceutical composition for topical application of poorly soluble compounds” (Intendis GmbH, priority 2007, dated 2012).
